According to patent US20220275274A1, “NEUTRAL FLUORESCENT MITOCHONDRIAL MARKER BASED ON NITROGEN-CONTAINING HETEROCYCLE, PREPARATION METHOD AND USE THEREOF” (SOOCHOW UNIVERSITY, priority 2020, published 2022):

What was measured:
[1] = ultraviolet absorption and fluorescence emission in chloroform; type: physicochemical; conditions: 10 μM; for maximum emission wavelength (fluorescence spectrum): excitation wavelength and slit width per dye
Method: The ultraviolet absorption and fluorescence emission of the dyes prepared in the examples and comparative examples (at a concentration of 10 μM) in chloroform were tested. The horizontal ordinate is the wavelength, and the vertical ordinate is the absorbance and fluorescence intensity, respectively.
In the ultraviolet-visible absorption spectrum, dye 1a has the maximum absorption at 378 nm; and in the fluorescence spectrum, dye 1a has the highest fluorescence intensity at 452 nm, where the excitation wavelength is 370 nm, and the slit width is 3 nm/1.5 nm. In the ultraviolet-visible absorption spectrum, dye 1b has a maximum absorption wavelength of 382 nm; and in the fluorescence spectrum, dye 1b has a maximum emission wavelength of 485 nm, where the excitation wavelength is 374 nm, and the slit width is 3 nm/1.5 nm. In the ultraviolet-visible absorption spectrum, dye 1c has a maximum absorption wavelength of 385 nm; and in the fluorescence spectrum, dye 1c has a maximum emission wavelength of 454 nm, where the excitation wavelength is 380 nm, and the slit width is 3 nm/1.5 nm. In the ultraviolet-visible absorption spectrum, dye 2a has the maximum absorption at 364 nm; and in the fluorescence spectrum, dye 2a has the highest fluorescence intensity at 480 nm, where the excitation wavelength is 374 nm, and the slit width is 3 nm/1.5 nm. In the ultraviolet-visible absorption spectrum, dye 2b has a maximum absorption wavelength of 360 nm; and in the fluorescence spectrum, dye 2b has a maximum emission wavelength of 458 nm, where the excitation wavelength is 370 nm, and the slit width is 3 nm/1.5 nm. In the ultraviolet-visible absorption spectrum, dye 2c has a maximum absorption wavelength of 356 nm; and in the fluorescence spectrum, dye 2c has a maximum emission wavelength of 441 nm, where the excitation wavelength is 360 nm, and the slit width is 3 nm/3 nm. In the ultraviolet-visible absorption spectrum, dye 3a has the maximum absorption at 548 nm; and in the fluorescence spectrum, dye 3a has the highest fluorescence intensity at 606 nm, where the excitation wavelength is 560 nm, and the slit width is 1.5 nm/1.5 nm. In the ultraviolet-visible absorption spectrum, dye 3b has a maximum absorption wavelength of 549 nm; and in the fluorescence spectrum, dye 3b has a maximum emission wavelength of 608 nm, where the excitation wavelength is 540 nm, and the slit width is 1.5 nm/1.5 nm. In the ultraviolet-visible absorption spectrum, dye 3c has a maximum absorption wavelength of 554 nm; and in the fluorescence spectrum, dye 3c has a maximum emission wavelength of 611 nm, where the excitation wavelength is 540 nm, and the slit width is 1.5 nm/1.5 nm. In the ultraviolet-visible absorption spectrum, dye 3d has a maximum absorption wavelength of 556 nm; and in the fluorescence spectrum, dye 3d has a maximum emission wavelength of 619 nm, where the excitation wavelength is 570 nm, and the slit width is 1.5 nm/1.5 nm. In the ultraviolet-visible absorption spectrum, dye 4 has a maximum absorption wavelength of 501 nm; and in the fluorescence spectrum, dye 4 has a maximum emission wavelength of 515 nm, where the excitation wavelength is 495 nm, and the slit width is 1.5 nm/1.5 nm. The above UV absorption and fluorescence emission test methods are conventional methods.

[2] = system: HeLa cells; assay: cell imaging, colocalization with green mitochondrial marker Mito Tracker Green FM; type: cell-based; conditions: dye 1 μM, vs Mito Tracker Green FM (100 nm), red and green channel
Method: (§1) Dye 3a was formulated into a mother liquor in DMSO (dimethyl sulfoxide), and then added to a conventional cell culture medium to give a concentration of dye 3a in the cell culture medium of 1 μM. L929 cells and HeLa cells were respectively co-cultured for 10 min in an incubator at saturated humidity, 37° C., and 5% CO2 (the experiment was same below). The existing green mitochondrial marker Mito Tracker® Green FM (100 nm) was added, and the cells were co-incubated for another 10 min, washed three times with a PBS buffer, and imaged under a laser confocal microscope. In the red channel, light of 561 nm was used for excitation, and a fluorescence signal in the range of 570-750 nm was collected. In the green channel, light of 488 nm was used for excitation, and a fluorescence signal in the range of 500-550 nm was collected. […] The results are shown in FIG. 20, where (a) and (g) are the bright-field images; (b) and (h) are the cell images with dye 3a; (c) and (i) are the cell images with the green mitochondrial marker; (d) and (j) are overlapped images with red channel and green channel, (e) and (k) show the fluorescence intensity of the ROI line in the overlapped images; and (f) and (1) show colocalization assays, with a colocalization coefficient of 0.91 (L929) and 0.90 (HeLa) respectively.
(§2) The experiment method with dye 3b (1 μM) and dye 3c (1 μM) is the same as that with dye 3a above, except that dye 3a is replaced. […] In FIG. 21, (a) and (g) are the bright-field images; (b) and (h) are the cell images with dye 3b; (c) and (i) are the cell images with the green mitochondrial marker; (d) and (j) are overlapped images with red channel and green channel, (e) and (k) show the fluorescence intensity of the ROI line in the overlapped images; and (f) and (1) show colocalization assays, with a colocalization coefficient of 0.88 (L929) and 0.90 (HeLa) respectively. In FIG. 22, (a) and (g) are the bright-field images; (b) and (h) are the cell images with dye 3c; (c) and (i) are the cell images with the green mitochondrial marker; (d) and (j) are overlapped images with red channel and green channel, (e) and (k) show the fluorescence intensity of the ROI line in the overlapped images; and (f) and (1) show colocalization assays, with a colocalization coefficient of 0.89 (L929) and 0.87 (HeLa) respectively.
(§3) Dye 3d was formulated into a mother liquor in DMSO (dimethyl sulfoxide), and then added to a conventional cell culture medium to give a concentration of dye 3d in the cell culture medium of 1 μM. L929 cells and HeLa cells were respectively co-cultured for 10 min in an incubator at saturated humidity, 37° C., and 5% CO2. Then the green mitochondrial marker Mito Tracker® Green FM (100 nm) and a green lipid droplet marker were added (the synthesis is as described in CHen, Y.; Wei, X. R.; Sun, R.; Xu, Y. J.; Ge, J. F. Org Biomol CHem 2018, 16, 7619.). The cells were co-incubated for another 10 min, washed three times with a PBS buffer, and imaged under a laser confocal microscope. In the red channel, light of 561 nm was used for excitation, and a fluorescence signal in the range of 570-750 nm was collected. In the green channel, light of 488 nm was used for excitation, and a fluorescence signal in the range of 500-550 nm was collected. […] The results are shown in FIG. 23, where (a) and (f) are the bright-field images, (b) and (g) are the cell images with dye 3d, (c) is the cell image with the green lipid droplet marker, (h) is the cell image with the green mitochondrial marker, (d) and (i) are overlapped images with red channel and green channel, and (e) and (j) show the fluorescence intensity of the ROI line in the overlapped images. […]

[3] = system: L929 cells; assay: as above; type: cell-based; conditions: dye 1 μM; for mitochondria labeling ability (red mitochondrial marker): L929 (normal) and HeLa (cancer) cells, vs Mito Tracker Green FM; for colocalization coefficient: L929 cells, vs Mito Tracker Green FM (100 nm), red and green channel
Method: as §1, §2, §3

Compound | maximum absorption wavelength (ultraviolet-visible absorption spectrum) [1] [nm] | maximum emission wavelength (fluorescence spectrum) [1] [nm] | colocalization coefficient [2] | mitochondria labeling ability (red mitochondrial marker) [3] | colocalization coefficient [3] | organelles marked ([3]; L929 and HeLa cells, vs Mito Tracker Green FM and a green lipid droplet marker)
CCN(CC)c1ccc2nc3c4ccc(-c5cnc6[nH]ncc6c5)cc4c(=O)cc-3oc2c1 [dye 3c] | 554 | 611 | 0.87 | mitochondria labeling ability in both normal cells and cancer cells | 0.89 | –
CCN(CC)c1ccc2nc3c4ccc(-c5ccc6nccnc6c5)cc4c(=O)cc-3oc2c1 [dye 3d] | 556 | 619 | – | – | – | simultaneously mark two organelles, i.e. mitochondria and lipid droplets
CCN(CC)c1ccc2nc3c4ccc(-c5cnc6[nH]ccc6c5)cc4c(=O)cc-3oc2c1 [dye 3b] | 549 | 608 | 0.90 | mitochondria labeling ability in both normal cells and cancer cells | 0.88 | –
CCN(CC)c1ccc2nc3c4ccc(-c5ccc6[nH]ncc6c5)cc4c(=O)cc-3oc2c1 [dye 3a] | 548 | 606 | 0.90 | mitochondria labeling ability in both normal cells and cancer cells | 0.91 | –
